4 compounds from patent publication US20100184675A1, “USE OF GLUCAGON (1-29) ALONE OR IN COMBINATION WITH NEUROPEPTIDE W30 AS A THERAPEUTIC AGENT” (priority 2007, published 2010) can be followed below.

For one assay, the system named is HIV-1IIIB. The experiment in a line: HIV-1 antiviral assay in CEM-SS cells. The settings on record: peptides 10 micrograms per ml, 6 days post-infection.
The test system of assay [1] is hepatitis B virus (HBV) ayw strain. Put plainly: HBV experimental assay system (HepG2-2.2.15, secreted HBV DNA by TaqMan PCR). It is filed as cell-based. Particulars: 10 micrograms per ml; 6 days; combination 0.95 mole peptide 1 and 1.05 mole peptide 2.
Description: HepG2-2.2.15 cells were plated in 96-well microtiter plates. After 16-24 hours the confluent monolayer of HepG2-2.2.15 cells was washed and the medium was replaced with complete medium containing test peptides—10 micrograms per ml—in duplicate. Lamivudine (3TC) was used as the positive control, while media alone was added to the cells as a negative control (virus control). Three days later the culture medium was replaced with fresh medium containing the peptides. Six days following the initial administration of the peptides, the cell culture supernatants was collected, treated with pronase and DNAse and then used in a real-time quantitative TaqMan PCR assay. The PCR-amplified HBV DNA was detected in real-time by monitoring increases in fluorescence signals that result from the exonucleolytic degradation of a quenched fluorescence probe molecule that hybridizes to the amplified HBV DNA. For each PCR amplification, a standard curve was simultaneously generated using dilutions of purified HBV DNA. Antiviral activity was calculated from the reduction in HBV DNA levels (% virus control). A novel dye uptake assay was then employed to measure cell viability, which is used to calculate toxicity (% cell control).
The subject of another assay is murine spleen cells. The experiment in a line: Th1/Th2 cytokine profiling assay (Ovalbumin-restimulated spleen cells). It is filed as cell-based, Balb/c mice. The settings on record: 10 micrograms per ml; 72 hours; combination 0.95 mole peptide 1 and 1.05 mole peptide 2.
Assay [2] relates to Primary Human endothelial cells (HUVEC). Put plainly: Endothelial cell migration assay. It counts as cell-based. The settings on record: 10 micrograms per ml; 22 hours.
The next assay concerns HUVEC. The experiment in a line: Endothelial tube formation assay. It is filed as cell-based, human. The settings on record: 10 micrograms per ml; 20 hours.
The subject of another assay is HCMV strain AD169. Put plainly: HCMV plaque formation assay in MRC-5 cells. The settings on record: peptides 10 micrograms per ml, 7-10 days.

Ends that are not written are not given here.

Description for murine spleen cells: On day 50, spleens of the mice were harvested (3 weeks after last boost with Ovalbumin). Cells were cultured (2×10^5/well in triplicate) and incubated with culture medium or test peptides—10 micrograms per ml—for 30 min. Thereafter, additional Ovalbumin was added to the cells at 10 micrograms/ml for in vitro restimulation of the cells. 72 hours later, cell supernatants were harvested and assayed using the Becton Dickinson Mouse Th1/Th2 Cytokine CBA Kit.

Regarding `Cc1cn([C@H]2C[C@H](N=[N+]=[N-])[C@@H](CO)O2)c(=O)[nH]c1=O` [AZT], the “inhibition of HIV-1 activity on tested T-cells” value with HIV-1IIIB is on record as “expected levels of antiviral activity”.
For the compound “Trp-Tyr-Lys-His-Val-Ala-Ser-Pro-Arg-Tyr-His-Thr-Val-Gly-Arg-Ala-Ala-Gly-Leu-Leu-Met-Gly-Leu-Arg-Arg-Ser-Pro-Tyr-Leu-Trp-OH (WYKHVASPRYHTVGRAAGLLMGLRRSPYLW-OH) [Peptide 2]”, the “inhibition of HBV replication as compared to the virus control infection” value in assay [1] was found to be 10.7%. Further, in the assay on murine spleen cells, the “change of the production of IFN-γ (figure = decreased by)” value was 25.5%, the “change of the production of IL-2 (figures = increased by)” value is listed as 82.1%, the “change of the production of IL-4 (figure = induced by)” value is “did not significantly change” and the “change of the production of IL-5 (figures = decreased by)” value stood at 29.3%. Besides, the “change of the production of TNF-alpha” value in the assay on murine spleen cells is listed as “did not significantly change”. In addition, in assay [2], the “inhibition of the migration of human endothelial cells” value worked out at 17%. In the assay with HUVEC, the “inhibition of the tube formation of human endothelial cells” value was determined as 16%. Besides, the “inhibition of HCMV plaque formation as compared to the virus control” value in the assay on HCMV strain AD169 is “did not inhibit”.
On to `Nc1nc(O)c2ncn(COC(CO)CO)c2n1` [Ganciclovir, reference compound], for which, in the assay with HCMV strain AD169, the “inhibition of HCMV plaque formation as compared to the virus control” value was “expected levels of antiviral activity”.
Consider `CC(C)(C)NC(=O)[C@@H]1CN(Cc2cccnc2)CCN1C[C@@H](O)C[C@@H](Cc1ccccc1)C(=O)N[C@H]1c2ccccc2C[C@H]1O` [indinavir], for which, in the assay on HIV-1IIIB, the “inhibition of HIV-1 activity on tested T-cells” value is “expected levels of antiviral activity”.
